Data on eleven compounds can be found in patent US8372971B2, “Heterocyclic compounds and methods of use” (TargeGen, Inc., priority 2004, dated 2013).

SMILES strings stand for the structures. Structures can show the parent of a compound that is named as a salt. Some results are limits rather than exact numbers.

This assay has as its system HUVECs. As to the kind of experiment: XTT cell viability assay (Example 106). The class given is cell-based, human. The note with it: Homo sapiens, HUVEC, 72 hours, read-out: Inhibition of HUVEC cell prolifiration (IC50). The protocol: Some compounds described by the general structure (B) were tested for cell viability. XTT assay: HUVECs were seeded at 10,000 cells/well of a tissue culture treated 96-well plate treated with collagen type I and grown overnight in the complete EGM-2 media as described above. The following morning, the inhibitors were serial diluted with DMSO and added to the cells with a final DMSO concentration of 1%. After 72 hours cell viability was measured with an XTT assay (Sigma, St. Louis, Mo.). The cells were also photographed to compare morphological differences to the XTT trends observed. Determination of the IC50 values was performed with quantitative software (Prism software package, GraphPad Software, San Diego Calif.).
As to `FC(F)(F)c1cc(-c2nnc(Nc3ccc(Oc4ccncc4)cc3)[nH]2)ccc1Cl` [5-[4-chloro-3-(trifluoromethyl)phenyl]-N-[4-(pyridine-4-yloxy)phenyl]-4H-1,2,4-triazol-3-amine trifluoroacetate salt], the IC50 was more than 40 µM.
In the case of `Nc1ccc(Oc2ccc(-c3nnc(Nc4ccc(Cl)c(C(F)(F)F)c4)[nH]3)cc2)nn1` [6-{4-[5-(4-chloro-3-trifluoromethyl-phenylamino)-4H-[1,2,4]triazol-3-yl]-phenoxy}-pyridazin-3-ylamine trifluoroacetic acid salt] it was 1.79 µM; in that of `Nc1ccc(Oc2ccc(-c3nnc(Nc4ccc(OC(F)(F)F)cc4)[nH]3)cc2)nn1` [6-{4-[5-(4-trifluoromethoxy-phenylamino)-4H-[1,2,4]triazol-3-yl]-phenoxy}-pyridazin-3-ylamine trifluoroacetic acid salt], more than 20 µM; in that of `CNC(=O)c1cc(Oc2ccc(-c3nnc(Nc4ccc(OC(F)(F)F)cc4)[nH]3)cc2)ccn1` [4-{4-[5-(4-trifluoromethoxy-phenylamino)-4H-[1,2,4]triazol-3-yl]-phenoxy}-pyridine-2-carboxylic acid methylamide trifluoroacetic acid salt], more than 40 µM.
As to `Nc1cc(Oc2ccc(-c3nnc(Nc4cc(C(F)(F)F)ccc4Cl)o3)cc2)nc(N)n1` [6-(4-{5-[(2-chloro-5-trifluoromethyl-phenyl)amino]-1,3,4-oxadiazol-2-yl}phenoxy)pyrimidine-2,4-diamine], the IC50 is approximately 20 µM.
Turning to `CNC(=O)c1cc(Oc2ccc(Nc3nnc(-c4ccc(Cl)c(C(F)(F)F)c4)[nH]3)cc2)ccn1` [4-[4-({5-[4-chloro-3-(trifluoromethyl)phenyl]-4H-1,2,4-triazol-3-yl}amino)phenoxy]-N-methylpyridine-2-carboxamide trifluoroacetate salt], the IC50 is more than 40 µM.
In the case of `FC(F)(F)Oc1ccc(Nc2nnc(-c3ccc(Oc4ccncc4)cc3)[nH]2)cc1` [{5-[4-(pyridin-4-yloxy)-phenyl]-4H-[1,2,4]triazol-3-yl]-(4-trifluoromethoxy-phenyl)-amine trifluoroacetic acid salt], the IC50 is more than 40 µM.
In the case of `FC(F)(F)c1ccc(Cl)c(Nc2nnc(-c3ccc(Oc4cncnc4)cc3)o2)c1` [5-[4-(Pyrimidin-5-yloxy)phenyl]-N-[2-chloro-5-(trifluoromethyl)-phenyl]-1,3,4-oxadiazol-2-amine] it was approximately 20 µM.
Consider `CNC(=O)c1cc(Oc2cccc(-c3nnc(Nc4ccc(Cl)c(C(F)(F)F)c4)[nH]3)c2)ccn1` [4-{3-[5-(4-chloro-3-trifluoromethyl-phenylamino)-4H-[1,2,4]triazol-3-yl]-phenoxy}-pyridine-2-carboxylic acid methylamide trifluoroacetic acid salt], for which the IC50 was more than 20 µM.
Consider `CNC(=O)c1cc(Oc2ccc(Nc3nnc(-c4ccc(OC(F)(F)F)cc4)[nH]3)cc2)ccn1` [4-{4-[5-(4-trifluoromethoxy-phenyl)-4H-[1,2,4]triazol-3-ylamino]-phenoxy}-pyridine-2-carboxylic acid methylamide trifluoroacetic acid salt], for which the IC50 is 2.2 µM.
In the case of `Nc1cc(Oc2ccc(-c3nnc(Nc4ccc(OC(F)(F)F)cc4)[nH]3)cc2)nc(N)n1` [6-{4-[5-(4-trifluoromethoxy-phenylamino)-4H-[1,2,4]triazol-3-yl]-phenoxy}-pyrimidine-2,4-diamine trifluoroacetic acid salt], the IC50 is 6 µM.
